In data set [1] the test system is airway inflammation after LPS challenge. Also on record: method as in PMID 17045826. To be noted: oral, 6-day treatment; cited from earlier work.
For data set [2] the following is noted: oral, 12-week treatment; cited from earlier work.
Data set [3] has as its system IL-6, MPO, MCP-1 and MIP-1β in sputum supernatant. In words: Inhaled LPS challenge: sputum supernatant protein biomarkers. The format is in vivo, human. Particulars: study 3.
Experimental: A baseline sputum sample was obtained within 14 days of the first study period when subjects were administered a single dose of randomised treatment. […] Induced sputum was obtained 6 h later to coincide with the maximal inflammatory response caused by inhaled LPS. A washout period of at least 21 days followed, with subjects returning after 14 days of the washout period for induced sputum sampling; this was performed to ensure that the total cell count, total neutrophil count and total macrophage count were within the range of −80 to +100 % of the screening values. […] If these criteria were not met, then up to two repeat visits to obtain sputum were allowed, with at least 4 days between sputum inductions. The next randomised treatment day was scheduled at least 4 days after sputum induction and was identical to the first treatment day.
Sputum was induced using normal saline after inhalation of salbutamol, and processing was performed using dithiothreitol (DTT) as previously described [20]. The supernatants were stored at −80 °C for later analysis, while cells were used to produce cytoslides (Cytospin 4, Shandon, Runcorn, UK) for differential cell counting and immunocytochemistry. Cytoslides for differential cell count were fixed in methanol (Sigma) and then stained with Rapi-Diff® (GCC Diagnostics, Sandyhurst, UK) or Wright-modified Giemsa (Accustatin WG-18, Sigma-Aldrich); a minimum of 400 non-squamous cells were counted and differential cell counts obtained as percentage of total non-squamous cells. Cell viability was analysed by trypan blue exclusion. Cytoslides with % squamous cell counts <20 % were deemed to be of acceptable quality for differential cell counting. Unfixed cytoslides were wrapped in aluminium foil and stored frozen at −80 °C for immunocytochemistry.
In studies 1 and 2, sputum supernatants were analysed for interleukin 6 (IL-6), myeloperoxidase (MPO), monocyte chemotactic protein-1 (MCP-1) and macrophage inflammatory protein-1β (MIP-1 β), using electrochemiluminescent immunoassays (ECLIA) or enzyme-linked immunosorbent assays (ELISA); the manufacturers are listed in the online supplement. In study 3, sputum supernatants were analysed for IL-6, MCP-1 and MIP-1β by the same method.
Data set [4] can be described thus: Plasma pharmacokinetics (sparse sampling). In kind it is in vivo, human. Particulars: study 3, fluticasone 500 μg inhaled.
Data set [5] deals with sputum neutrophils and macrophages after inhaled LPS. In words: Inhaled LPS challenge in healthy subjects: induced sputum cell counts. The format is in vivo, human. Particulars: study 3. The protocol: Three randomised, double-blind, placebo-controlled crossover studies were performed; the effects of a single dose of active treatment was investigated in all three studies. […] Studies 2 and 3 were conducted at two UK centres: Quintiles Drug Research Unit, London, and Medicines Evaluation Unit, Manchester. […] The studies were performed during the following time periods: study 1, Sep 2006–Mar 2008; study 2, Jan 2011–Dec 2011; and study 3, Jul 2011–Jan 2012. The design of all three studies was similar. A baseline sputum sample was obtained within 14 days of the first study period when subjects were administered a single dose of randomised treatment. […] Induced sputum was obtained 6 h later to coincide with the maximal inflammatory response caused by inhaled LPS. […] This criterion was used to ensure that sputum cell counts after LPS challenge had returned to close to the original baseline values; this was done to reduce data variability between treatment periods. […] For each challenge, a 1-mg vial of lyophilised LPS (Escherichia coli serotype O26:B6, ref. L-2654, Sigma-Aldrich, Dorset, UK) was diluted with 4 mL of 0.9 % w/v sodium chloride. The reconstitution produced a 0.25 mg/mL solution, of which 2 mL was placed into the pre-calibrated dosimeter pot and administered via five inhalations from a breath-activated dosimeter (Mefar dosimeter MB3, Brescia, Italy). Each inhalation was performed over 3 s with a 6-s breath hold. […] Sputum was induced using normal saline after inhalation of salbutamol, and processing was performed using dithiothreitol (DTT) as previously described. The supernatants were stored at −80 °C for later analysis, while cells were used to produce cytoslides (Cytospin 4, Shandon, Runcorn, UK) for differential cell counting and immunocytochemistry. […] Cell viability was analysed by trypan blue exclusion. Cytoslides with % squamous cell counts <20 % were deemed to be of acceptable quality for differential cell counting. Unfixed cytoslides were wrapped in aluminium foil and stored frozen at −80 °C for immunocytochemistry. Sputum neutrophil percentage was the primary endpoint for all three studies. The neutrophil percentage was modelled using a mixed effects analysis of covariance (ANCOVA) model appropriate for a two-period, two-treatment or three-period, three-treatment crossover design. The fixed effects in the model were treatment and period. Subjects were modelled as a random effect. Additionally, the period-specific baseline was modelled as a covariate. This model was used for all sputum inflammatory markers, including the immunohistocytochemistry, where cell counts were log transformed before analyzing the data and percent differentials were not transformed. […] Ninety percent confidence intervals of the difference (non-transformed data) or the ratio (log-transformed data) were constructed based on the ANCOVA model.

On the set-up of data set [6]: method as in PMID 12373268. To be noted: single inhaled dose; cited from earlier work.
For data set [7], the system named is IL-6, MCP-1, MIP1β, CC16, fibrinogen and CRP levels in plasma. Description: Inhaled LPS challenge: plasma protein biomarkers. To be noted: study 3. In kind it is in vivo, human.
Experimental: Blood samples were obtained in studies 2 and 3 to obtain plasma measurements of IL-6, MCP-1, MIP1β, CC16, fibrinogen and CRP levels; pre-dose and 6 h post-LPS samples were used for statistical analysis. This coincided with the timings of sputum measurements of inflammation biomarkers.
Systemic biomarkers were analysed using a similar mixed effects model; these models also adjusted for pre-dose baseline values, which were obtained 24 h prior to LPS challenge in study 2 and 30 min prior to LPS challenge in study 3.
Where [8] appears, read: fluticasone 500 μg inhaled, post LPS.
[9] abbreviates: fluticasone propionate 500 μg inhaled.
The mark [10] stands for this setting: fluticasone 500 μg inhaled, post LPS, ANCOVA model mean.
The mark [11] stands for this setting: fluticasone 500 μg inhaled, 6 hrs post LPS.

These results are taken from publication PMC4564450, “Oral and inhaled p38 MAPK inhibitors: effects on inhaled LPS challenge in healthy subjects” (European Journal of Clinical Pharmacology, 2015).

Consider `C[C@]12C=CC(=O)C=C1CC[C@@H]1[C@@H]2[C@@H](O)C[C@@]2(C)[C@H]1CC[C@]2(O)C(=O)CO` [prednisolone], for which, in data set [1], the “airway inflammation in an LPS challenge study” value is reported as “no effect” and the “plasma CRP levels in an LPS challenge study” value is “suppressed”.
Turning to `Cc1c(F)cc(C(=O)NC2CC2)cc1-c1ccc(C(=O)NCC(C)(C)C)cn1` [losmapimod, reference compound], the “sputum neutrophil counts in COPD patients” value in data set [2] is on record as “failed to reduce”.
For the molecule `CCC(=O)O[C@]1(C(=O)SCF)[C@H](C)C[C@H]2[C@@H]3C[C@H](F)C4=CC(=O)C=C[C@]4(C)[C@@]3(F)[C@@H](O)C[C@@]21C` [fluticasone propionate, reference compound], in data set [3] (setting [8]), the “Sputum IL-6, mean” value is on record as 200.97 pg/mL; the “Sputum MCP-1, mean” value amounted to 133.79 pg/mL; the “Sputum MIP-1β, mean” value stood at 1157.87 pg/mL. For the same molecule, the “sputum cytokine measurements compared to placebo” value in data set [3] (setting [9]) is recorded as “no effects”. Also, the Plasma concentration in data set [4] (1.5 h) is listed as 56.0 (29.4) pg/mL. For the same molecule, the Plasma concentration in data set [4] (6.5 h) is reported as 37.31 (15.1) pg/mL. Moreover, the “Mean (SD) sputum neutrophil percentage” value in data set [5] (fluticasone 500 μg inhaled single dose, 6 h post-LPS) was 70.0 (12.9) %. In data set [5] (setting [10]), the “Macrophage Differential in sputum” value worked out at 27.53%, the “Total Cell Count in sputum” value was determined as 3.02e+06 g⁻¹, the “Total Macrophage Count in sputum” value was 820000 g⁻¹ and the “Total Neutrophil Count in sputum” value turned out to be 2.04e+06 g⁻¹. In data set [5] (fluticasone propionate 500 μg inhaled single dose, p = 0.55), the “sputum neutrophil percentage post-LPS challenge compared to placebo” value is given as “not changed significantly”. In data set [5] (post LPS), the “Total Cell Count in sputum, Ratio of Means active/placebo” value is on record as 0.90; the “Total Macrophage Count in sputum, Ratio of Means active/placebo” value came to 0.93; the “Total Neutrophil Count in sputum, Ratio of Means active/placebo” value is given as “no effects”. Further, the “Macrophage Differential in sputum, difference between the active treatment mean and the placebo mean” value in data set [5] (post LPS, footnote: difference, not ratio) is listed as 2.04%. The “Total Neutrophil Count in sputum, Ratio of Means active/placebo” value in data set [5] (post LPS, listed as Fluticasone) is on record as 0.66. The “effects of bronchial challenges in asthma” value in data set [6] is recorded as “significantly inhibit”. In addition, in data set [7] (setting [11]), the “Plasma CC16, mean” value came out at 10.51 ng/mL; the “Plasma CRP, mean” value was determined as 708.10 ng/mL; the “Plasma Fibrinogen, mean” value turned out to be 2058.00 µg/mL; the “Plasma IL-6, mean” value was determined as 23.30 pg/mL. In data set [7] (setting [11]), the “Plasma MCP-1, mean” value was determined as 401.70 pg/mL and the “Plasma MIP-1β, mean” value is on record as 76.95 pg/mL. Further, the “systemic biomarkers compared to placebo” value in data set [7] (setting [9]) was “no effect”.
